Results as given in ChEMBL document CHEMBL1158276, “Synthesis of 5-(3-Hydroxypropyl)-7-methoxy-2-(3-methoxy-4-hydroxyphenyl)-3- benzo[ b ]furancarbaldehyde, a Novel Adenosine A 1 Receptor Ligand from the Root of Salvia miltiorrhiza” (J Nat Prod, 1996).

Target: T1, Adenosine receptor A1 (Bos taurus, UniProt P28190)
T1 sequence (P28190 whole entry): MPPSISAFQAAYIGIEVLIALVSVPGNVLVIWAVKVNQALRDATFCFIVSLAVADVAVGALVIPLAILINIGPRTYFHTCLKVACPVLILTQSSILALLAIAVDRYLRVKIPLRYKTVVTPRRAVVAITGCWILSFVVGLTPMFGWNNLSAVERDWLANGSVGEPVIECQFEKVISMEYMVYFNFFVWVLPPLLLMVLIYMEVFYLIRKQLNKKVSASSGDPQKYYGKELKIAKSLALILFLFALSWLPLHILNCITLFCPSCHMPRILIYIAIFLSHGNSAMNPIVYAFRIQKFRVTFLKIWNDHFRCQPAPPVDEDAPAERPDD
Test: Displacement of [3H]phenylisopropyladenosine from adenosine A1 receptor in bovine cerebral cortex membrane
Assay type: cell membranes

IC50: 17 nM
SMILES: COc1cc(-c2oc3c(OC)cc(CCCO)cc3c2C=O)ccc1O
